The text below walks through data of patent US20220288091A1, “Method for Improving Insulin Sensitivity” (priority 2019, published 2022).

Assay [1] concerns hypothalamic-pituitary-adrenal axis. Put plainly: 24-hour urinary free cortisol (UFC). The format is in vivo, human. The settings on record: 50 mg every 6 hours for 9 days; for Urinary Free Cortisol (24-hour UFC): mean±SD, n=16, normal 3.5-45. The source says:
Urine cortisol and other surrogate biochemical markers of HPA activation: This includes all tests currently available or subsequently developed that may be used to evaluate the effects of GRA dose and schedule on the HPA axis. Normal 24-hour urine free cortisol (UFC) levels range from […] when measured in most tandem mass spectrometry assays. Values are higher when measured by immunoassays because of cross-reactivity with the antibodies used in those assays with other steroids that are structurally similar to cortisol. Measurement of UFC by tandem mass spectrometry is the preferred method to assess the effect of GRAs on the HPA axis for three reasons: 1. ease of collection, 2. specificity of the assay (it measures only cortisol) and 3. the well-established range of values seen in physiologic stress, or Pseudo-Cushing's syndrome, which is 1-3 times the upper limit of the normal reference range. However, other biochemical tests may be used as surrogate biochemical markers of the HPA axis, including, but not limited to measurement of serum or salivary cortisol at multiple time-points throughout a 24 hour period, including both the day and night, which is expressed as either the mean value or the area under the curve. Normal ranges for all cortisol assays and 24-hour assessments will vary depending on the assay technique, and reagents, and must be used based on locally-determined values, or values provided by the manufacturer of an assay kit. The results obtained from any of these assays are then used to determine whether the dosage of the one or more GR antagonists need to be adjusted upwards or downwards so as to maintain 24-hour serum or urinary free cortisol levels at no more than about two or three times the upper level of the normal range, respectively.
Initially, 19 subjects underwent randomization. […]
(§1) To reduce potential variability associated with estrogen in premenopausal women, testing was performed in the early follicular phase (days 1-7 of menstrual cycle). Baseline height and weight were measured after an overnight fast. […]

The test system of assay [2] is overweight or obese subjects with prediabetes or mild type 2 diabetes. Put plainly: Fasting plasma glucose, insulin and fasting surrogate indices (HOMA-IR, QUICKI, Adipo-IR) in placebo-controlled crossover trial. The assay is classed as in vivo, human. The settings on record: 50 mg every 6 hours for 9 days, n=16. How it is done:
A randomized, placebo-controlled, double-blind crossover trial was conducted to evaluate the use of an anti-glucocorticoid as a means for ameliorating insulin resistance. Mifepristone, 50 mg, or a placebo, was administered every six hours for nine days to sixteen overweight or obese (BMI 25-37 kg/m^2) subjects (seven women). Participant ages ranged from 48 to 64 years. Ten had prediabetes and six had mild diabetes type II (HgbA1c less than 7%). Treatment of the glucose disorder with diet or a stable dose of metformin (used by two patients) was maintained for three (3) months before the study. The interventions were nine days of mifepristone or placebo treatment followed by a six (6) to eight (8) week wash out and cross over to the other arm. At baseline and at the end of each treatment period, parameters of insulin sensitivity were assessed by a frequently sampled intravenous glucose tolerance test (FSIVGTT) and an oral glucose tolerance test (OGTT). A whole body glucose disposal index of insulin sensitivity (SI) was derived using a minimal model analysis. Adipose tissue-SI, which reflects insulin-induced free fatty acid suppression, was estimated by the log-linear slope of free fatty acid levels and the AUC of insulin during the FSIVGTT. Matsuda index, oral glucose insulin sensitivity index (OGIS, ml/min/m^2), and hepatic insulin resistance index (HIRI, mg/dl×microU/ml×10^5) were derived from OGTT. Adipo-IR, a surrogate measure of adipocyte insulin resistance, was calculated by multiplying fasting concentrations of free fatty acids and insulin (mmol×pmol/L). Comparison of various post-treatment parameters was performed using crossover ANOVA. This analysis takes into account specific treatment arm, treatment order, and treatment effects. Thus, carryover effects were explicitly tested for in the crossover study.
The inventors conducted a random, triple-blinded, placebo-controlled, cross-over study using mifepristone (50 mg every 6 hours, 200 mg total daily dose) in overweight/obese individuals (n=16, 44% female) with pre-DM (pre-diabetes mellitus) or mild type 2 diabetes mellitus (glycated hemoglobin A1C […]). Mifepristone or placebo was administered for 9 days followed by a washout period of 6 to 8 weeks, and then crossover to the other treatment arm. At baseline and after each treatment period, the oral glucose tolerance test and frequently sampled intravenous glucose tolerance test were performed. Insulin sensitivity (SI) was measured using Matsuda index and oral glucose insulin sensitivity index (OGISI). Hepatic SI was assessed using hepatic insulin resistance index (HIRI), and adipose tissue SI was assessed using adipo-IR adipose tissue insulin sensitivity index (ATISI).
The study in this example used a prospective, randomized, double-blind placebo-controlled, cross-over design in which eligible subjects were randomized in blocks of six to the initial arm of the study: either placebo or mifepristone (50 mg tablets every 6 hours) for 9 days. This was followed by a 6-8 week washout period. Subjects were then crossed over to the other treatment arm for an additional 9 days. The study was conducted at the National Institutes of Health (NIH) Clinical Center, Bethesda, Md., U.S.
as §1

Each structure is given as a SMILES string. “And” between values parts separate entries of the source, which are not always exact repeats. Equal entries are not always repeated.

`CC#C[C@]1(O)CC[C@H]2[C@@H]3CCC4=CC(=O)CCC4=C3[C@@H](c3ccc(N(C)C)cc3)C[C@@]21C` [Mifepristone, 11beta-[p-(dimethylamino)phenyl]-17alpha-(1-propynl)estra-4,9-dien-17beta-ol-3-one]: the “Urinary Free Cortisol (24-hour UFC)” value in assay [1] worked out at 74.1 ± 75.3 μg/24 hr. In assay [1] (listed as mifepristone), the “Urinary Free Cortisol (24-hour UFC)” value worked out at 74.1±75.3 μg/24 hr. Also, in assay [1] (subgroup of 8 subjects), the “Post-treatment mean UFC in the 8 subjects above the normal limit” value is given as 120.4±83.9 μg/24 hr. Also, in assay [2] (post-treatment mean±SD), the “Fasting Glucose” value was 100.4 ± 15.3 mg/dL; the “Fasting Insulin” value was 95.7 ± 76.1 pmol/L and 95.6 ± 76.1 pmol/L; the HOMA-IR is reported as 3.58 ± 3.27; the QUICKI is 0.332 ± 0.034. Moreover, the “Adipose-tissue Insulin Resistance Index (Adipo-IR)” value in assay [2] (fasting FFA × fasting insulin, mean±SD) was determined as 50.0±46.0 mmol×pmol/L.
